Measured values published in patent US11638716B2, “Compounds, compositions, and methods for the treatment of disease” (F-star Therapeutics, Inc., priority 2017, dated 2023).

Columns and labels:
THP1-STING KO cells = assay: IRF activity in THP1-STING KO cells; format: cell-based; settings: compound alone, 20 hours
R232H variant of hSTING = R232H variant of hSTING (Homo sapiens, UniProt Q86WV6); assay: IRF/NF-kB reporter cells, STING R232H variant; format: cell-based; settings: 20 hours
Description: (§1) FIG. 27 depicts cells stably expressing both or either one of the reporters to measure IRF and NF-kB activity were treated with a range of concentrations of compound 4 or DMSO control for 20 hours. IRF activity was assessed using QUANTI-luc to measure levels of Lucia and NF-kB activity was determined by measure SEAP levels at 620-655 nm. % induction was calculated from fold change in luminescence/absorbance compared to DMSO treated sample. EC50 values are generated by curve fit in Xlfit.
(§2) Cells grown in complete media were treated with various concentrations of a compound of the disclosure or DMSO control. Dual cells carry both secreted embryonic alkaline phosphatase (SEAP) reporter gene under the control of an IFN-β minimal promoter fused to five copies of the NF-kB consensus transcriptional response element to measure NF-kB activity and Lucia reporter gene under the control of an ISG54 minimal promoter to measure IRF activity. After 20 h incubation, IRF activity was assessed using QUANTI-luc to measure levels of Lucia and NF-kB activity was determined by measure SEAP levels at 620-655 nm. % induction was calculated from fold change in luminescence/absorbance compared to DMSO treated sample. EC50 values are generated by curve fit in Xlfit.

MYD88 knock out cells = assay: IRF/NF-kB reporter activity in MYD88 knock out cells; format: cell-based; settings: 20 hours
Description: as §1, §2

IRF = IRF signaling reporter (Lucia), compound 4 and diastereomers; format: cell-based; settings: 20 hours
Description: Cells were treated with various concentrations of […] and two of its diastereomers (4-A and 4-B), or DMSO control for 20 hours. Cells stably expressed one or both of the reporters used to measure IRF activity. IRF activity was assessed using QUANTI-luc to measure levels of Lucia. % induction was calculated from fold change in luminescence/absorbance compared to DMSO treated sample.
Cells were treated with various concentrations of compound 4 and two of its diastereomers (4-A and 4-B), or DMSO control for 20 hours. Cells stably expressed one or both of the reporters used to measure IRF activity. IRF activity was assessed using QUANTI-luc to measure levels of Lucia. % induction was calculated from fold change in luminescence/absorbance compared to DMSO treated sample.

NF-kB = NF-kB signaling reporter (SEAP), compound 4 and diastereomers; format: cell-based; settings: FIG. 34B, 20 hours
Description: Cells were treated with various concentrations of compound 4 and two of its diastereomers (4-A and 4-B), or DMSO control for 20 hours. Cells stably expressed one or both of the reporters used to measure NF-kB activity. NF-kB activity was determined by measure SEAP levels at 620-655 nm. % induction was calculated from fold change in luminescence/absorbance compared to DMSO treated sample.

RIG-I = assay: IRF/NF-kB reporter cells testing the role of RIG-I; format: cell-based; settings: 20 hours
Description: FIG. 28 depicts cells stably expressing both or either one of the reporters to measure IRF and NF-kB activity were treated with a range of concentrations of compound 4 or DMSO control for 20 hours. IRF activity was assessed using QUANTI-luc to measure levels of Lucia and NF-kB activity was determined by measure SEAP levels at 620-655 nm. % induction was calculated from fold change in luminescence/absorbance compared to DMSO treated sample. EC50 values are generated by curve fit in Xlfit.

ISGs/type I IFN response = ISGs/type I IFN response in normal Balb/C mice after intravenous dosing; format: in vivo, mouse; settings: intravenously 9 mg/kg
[1] = target: T1, human wtSTING-CTD (with SUMO tag) (Homo sapiens, UniProt Q86WV6, H232R); assay: Isothermal calorimetry against human wtSTING-CTD; format: binding; settings: 25° C., 1.5 mM compound titrated against 132.5 μM protein
T1 construct: human wtSTING-CTD (with SUMO tag)
T1 sequence (Q86WV6 135-379 H232R): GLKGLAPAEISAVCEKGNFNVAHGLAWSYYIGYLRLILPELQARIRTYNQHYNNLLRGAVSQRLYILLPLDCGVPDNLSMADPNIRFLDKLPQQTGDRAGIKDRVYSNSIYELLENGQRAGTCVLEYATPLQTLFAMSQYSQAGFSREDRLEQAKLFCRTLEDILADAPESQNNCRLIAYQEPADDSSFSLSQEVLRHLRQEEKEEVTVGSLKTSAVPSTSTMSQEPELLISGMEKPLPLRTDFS
Description: Isothermal Calorimetry was carried out on a MicroCal Itc200 at 25° C.

Chain of R232H variant of hSTING (Q86WV6 whole entry, stated change not applied): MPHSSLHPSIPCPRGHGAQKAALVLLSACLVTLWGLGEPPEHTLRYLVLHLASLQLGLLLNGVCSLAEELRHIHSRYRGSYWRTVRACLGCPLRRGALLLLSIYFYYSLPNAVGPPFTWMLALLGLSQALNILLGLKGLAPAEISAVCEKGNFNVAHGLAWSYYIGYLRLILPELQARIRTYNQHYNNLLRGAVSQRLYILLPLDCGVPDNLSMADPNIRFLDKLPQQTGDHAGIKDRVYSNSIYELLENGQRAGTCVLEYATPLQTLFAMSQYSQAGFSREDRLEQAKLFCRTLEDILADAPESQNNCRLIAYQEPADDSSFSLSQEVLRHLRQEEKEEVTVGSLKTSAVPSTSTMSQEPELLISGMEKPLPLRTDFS

SMILES	IRF activity in THP1-STING KO cells (THP1-STING KO cells)	activity against R232H variant of hSTING (R232H variant of hSTING)	activity in MYD88 knock out cells (MYD88 knock out cells)	IRF signaling induction (IRF; FIG. 34A)	IRF signaling induction (IRF; FIG. 34C)	NF-kB signaling induction (NF-kB)	involvement of RIG-I in the mechanism of action (RIG-I)	upregulation of ISGs/type I IFN response (ISGs/type I IFN response)	binding to STING (isothermal calorimetry) [1]
CCCCCCCCCCOc1ccc(C(=O)Oc2ccc(CSP3(=O)OC[C@H]4O[C@@H](n5cnc6c(N)ncnc65)[C@H](F)[C@@H]4OP(=O)(O)OC[C@H]4O[C@@H](n5ccc(=O)[nH]c5=O)[C@H](O3)[C@@H]4F)cc2)cc1 (stereo partly drawn) [Compound 4]	did not induced IRF activity	possess activity	possess activity	efficacious in inducing IRF signaling	efficacious in inducing IRF signaling	efficacious in inducing NF-kB signaling	not implicated		
N.N.Nc1ncnc2c1ncn2[C@@H]1O[C@@H]2COP(=O)(S)O[C@@H]3[C@H](F)[C@@H](COP(=O)(O)O[C@H]2[C@H]1F)O[C@H]3n1ccc(=O)[nH]c1=O (stereo partly drawn) [Compound 3]								strongly induced upregulation	bind to STING with high affinity
